Here are results for 4 cell lines from the supplement of paper PMC10307832.

Holding throughout (assay): relative viability (nuclei count vs DMSO), 5 days (fraction); higher = more cells survive
Compound in assay [1]: C1=CC2=C(C=CC(=C2)C=C3C(=O)NC(=NCC4=CC=CS4)S3)N=C1 [RO-3306] + Cc1nc(NC(=O)N2CCC[C@H]2C(N)=O)sc1-c1ccnc(C(C)(C)C(F)(F)F)c1 [Alpelisib] (partner 2 µM)
A digest of the protocol: (§1)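 The day after seeding in 1536-well plates, lung cancer cell lines were treated by pin tool with a single drug, or with a fixed anchor-drug dose together with five library-drug doses (not always all listed) in √10 steps. After 5 days, a combined fix-and-stain solution (final 0.05% Triton X-100, 1% formaldehyde, 1 ug/ml Hoechst) was added. Nuclei counted on 4× images gave relative viability as treated counts over vehicle counts, reported as the median of duplicate plates.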

Compound in assay [2]: C1=CC2=C(C=CC(=C2)C=C3C(=O)NC(=NCC4=CC=CS4)S3)N=C1 [RO-3306] + NC(=O)Nc1cc(-c2cccc(F)c2)sc1C(=O)N[C@H]1CCCNC1 [AZD7762] (partner 0.2 µM)
A digest of the protocol: as §1

Compound in assay [3]: C1=CC2=C(C=CC(=C2)C=C3C(=O)NC(=NCC4=CC=CS4)S3)N=C1 [RO-3306] + O=C(CCCCCCC(=O)Nc1ccccc1)NO [Vorinostat] (partner 1 µM)
In outline:
as §1

Compound in assay [4]: O=S(=O)(c1ccccc1)N(CC(F)(F)F)c1ccc(C(O)(C(F)(F)F)C(F)(F)F)cc1 + CCNC(=O)c1noc(-c2cc(C(C)C)c(O)cc2O)c1-c1ccc(CN2CCOCC2)cc1 [Luminespib] (partner 0.01 µM)
A digest of the protocol:
as §1

With LU99A, the relative viability came out at 0.492 in assay [1] (first compound 0.01 µM); 0.452 in assay [1] (first compound 0.03162 µM); 0.564 in assay [1] (first compound 0.1 µM); 0.472 in assay [1] (first compound 0.3162 µM); 0.491 in assay [1] (first compound 1 µM); 0.394 in assay [2] (first compound 0.01 µM). The relative viability in assay [2] (first compound 0.03162 µM) is 0.325; in assay [2] (first compound 0.1 µM), 0.483; in assay [2] (first compound 0.3162 µM) it was 0.319; in assay [2] (first compound 1 µM), 0.338; in assay [3] (first compound 0.01 µM) it was 0.648; in assay [3] (first compound 0.03162 µM) it was 0.626. The relative viability amounted to 0.461 in assay [3] (first compound 0.1 µM); 0.432 in assay [3] (first compound 0.3162 µM); 0.388 in assay [3] (first compound 1 µM); 0.332 in assay [4] (first compound 0.8 µM); 0.226 in assay [4] (first compound 2.53 µM); 0.185 in assay [4] (first compound 8 µM).

For the cell line NCI-H2087, the relative viability in assay [1] (first compound 0.01 µM) turned out to be 1.12; in assay [1] (first compound 0.03162 µM), 1.2; in assay [1] (first compound 0.1 µM), 1.08; in assay [1] (first compound 0.3162 µM), 0.91; in assay [1] (first compound 1 µM) it was 1.08; in assay [2] (first compound 0.01 µM) it was 1.42. The relative viability in assay [2] (first compound 0.03162 µM) was found to be 1.03; in assay [2] (first compound 0.1 µM) it was 1.35; in assay [2] (first compound 0.3162 µM), 1.42; in assay [2] (first compound 1 µM), 1.34; in assay [3] (first compound 0.01 µM), 0.775; in assay [3] (first compound 0.03162 µM), 0.805. Besides, the relative viability was 0.756 in assay [3] (first compound 0.1 µM); 0.864 in assay [3] (first compound 0.3162 µM); 0.86 in assay [3] (first compound 1 µM); 0.17 in assay [4] (first compound 0.8 µM); 0.146 in assay [4] (first compound 2.53 µM); 0.205 in assay [4] (first compound 8 µM).

For BEN, the relative viability in assay [1] (first compound 0.01 µM) came out at 1.3; in assay [1] (first compound 0.03162 µM) it was 0.738; in assay [1] (first compound 0.1 µM), 0.926; in assay [1] (first compound 0.3162 µM), 1.09; in assay [1] (first compound 1 µM), 1.08; in assay [2] (first compound 0.01 µM), 0.558. Moreover, the relative viability in assay [2] (first compound 0.03162 µM) was 0.676; in assay [2] (first compound 0.1 µM), 0.649; in assay [2] (first compound 0.3162 µM), 0.742; in assay [2] (first compound 1 µM) it was 0.768; in assay [3] (first compound 0.01 µM), 0.565; in assay [3] (first compound 0.03162 µM), 0.543. The relative viability in assay [3] (first compound 0.1 µM) is 0.562; in assay [3] (first compound 0.3162 µM), 0.595; in assay [3] (first compound 1 µM), 0.55; in assay [4] (first compound 0.8 µM), 0.343; in assay [4] (first compound 2.53 µM), 0.289; in assay [4] (first compound 8 µM), 0.182.

In the case of NCI-H2405, the relative viability was found to be 0.801 in assay [1] (first compound 0.01 µM); 0.707 in assay [1] (first compound 0.03162 µM); 0.784 in assay [1] (first compound 0.1 µM); 0.874 in assay [1] (first compound 0.3162 µM); 0.695 in assay [1] (first compound 1 µM); 0.828 in assay [2] (first compound 0.01 µM). In addition, the relative viability in assay [2] (first compound 0.03162 µM) is 0.608; in assay [2] (first compound 0.1 µM) it was 0.717; in assay [2] (first compound 0.3162 µM), 0.718; in assay [2] (first compound 1 µM) it was 0.578; in assay [3] (first compound 0.01 µM) it was 1.01; in assay [3] (first compound 0.03162 µM), 0.949. For the same cell line, the relative viability is 0.968 in assay [3] (first compound 0.1 µM); 0.916 in assay [3] (first compound 0.3162 µM); 0.231 in assay [3] (first compound 1 µM); 0.718 in assay [4] (first compound 0.8 µM); 0.616 in assay [4] (first compound 2.53 µM); 0.646 in assay [4] (first compound 8 µM).
